# From patent publication US20250382303A1, “NOVEL COMPOUND AS NADPH OXIDASE 2 INHIBITOR AND PHARMACEUTICAL COMPOSITION CONTAINING SAME” (DONGGUK UNIVERSITY INDUSTRY-ACADEMIC COOPERATION FOUNDATION, priority 2022, published 2025)
# Target: T1, NOX2 (Homo sapiens, UniProt P04839)
# T1 construct: Used for the NOX2 activity assay was human leukemia 60 cells (HL-60), which are widely, universally used to assess NOX2 activity; endogenous in cells
# T1 sequence (P04839 2-570 limits assumed): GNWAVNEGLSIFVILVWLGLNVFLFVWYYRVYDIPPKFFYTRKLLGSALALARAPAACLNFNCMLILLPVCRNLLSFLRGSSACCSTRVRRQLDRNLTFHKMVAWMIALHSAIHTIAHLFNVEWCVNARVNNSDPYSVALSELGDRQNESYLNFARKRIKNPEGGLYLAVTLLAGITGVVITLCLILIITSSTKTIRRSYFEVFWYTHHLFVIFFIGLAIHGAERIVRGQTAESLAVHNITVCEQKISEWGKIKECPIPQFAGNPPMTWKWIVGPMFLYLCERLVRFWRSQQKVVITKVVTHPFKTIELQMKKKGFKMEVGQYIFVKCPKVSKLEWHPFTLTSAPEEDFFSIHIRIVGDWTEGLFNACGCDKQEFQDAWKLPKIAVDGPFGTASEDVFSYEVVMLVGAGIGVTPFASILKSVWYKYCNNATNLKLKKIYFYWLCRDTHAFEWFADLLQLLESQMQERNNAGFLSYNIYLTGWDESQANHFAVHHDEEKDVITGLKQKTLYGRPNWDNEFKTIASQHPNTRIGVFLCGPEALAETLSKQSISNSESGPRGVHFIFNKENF
# T1 sequence (P13498 2-195 partner limits assumed): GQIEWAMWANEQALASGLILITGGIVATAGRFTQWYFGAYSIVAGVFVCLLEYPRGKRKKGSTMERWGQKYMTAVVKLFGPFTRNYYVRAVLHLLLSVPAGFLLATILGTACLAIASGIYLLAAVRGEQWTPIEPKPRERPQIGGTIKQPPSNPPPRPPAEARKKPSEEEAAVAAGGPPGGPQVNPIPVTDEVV
# Experiment: NOX2 activity assay: PMA-induced ROS in ATRA-differentiated HL-60 cells (WST-1 or Amplex Red/HRP probe)
# Assay type: cell-based
# Details: WST-1; comment on Table 1
# Procedure: NOX activity was evaluated by measuring the reactive oxygen species (ROS) produced by NOX. The probes that were used to measure ROS were water soluble tetrazolium-1 (WST-1, superoxide-specific colorimetric probe) and Amplex Red/horseradish peroxidase (AR/HRP, hydrogen peroxide-specific fluorometric probe), and the concentration of the probes used was […]. For WST-1, the change in the absorbance at 450 nm was measured, and, for AR, the change in fluorescence signals was measured at 560 nm and 585 nm, respectively for excitation wavelength (Ex) and emission wavelength (Em). The optical signal was measured using the SpectraMax M3 microplate reader from Molecular Devices at 37° C. for 60 minutes.
# Used for the NOX2 activity assay was human leukemia 60 cells (HL-60), which are widely, universally used to assess NOX2 activity. 1×10^5 cells/mL of HL-60 were treated with […] all-trans-retinoic acid (ATRA) for 4 days to induce differentiation. Differentiated HL-60 (diff. HL-60) was centrifuged at 200 g for 5 minutes and washed twice with HBSS. Differentiation was induced to reach 3×10^4 cells/well on a 96-well plate (diff). HL-60 was seeded. The test material was treated to cells and left in a 37° C. incubator for 60 minutes. As a control group, the same concentration of DMSO, which is the vehicle of the test material, was used. 200 ng/mL phorbol 12-myristate 13-acetate (PMA) was used as the NOX2 activator, and the production amount of ROS induced by PMA was measured for 60 minutes. […] diphenyleneiodonium (DPI), which is well known to inhibit NOX, was used as a positive control group to evaluate whether the NOX2 activity tester properly operates.
row,"NOX2 inhibitory ability, verbal rating",Compound
1,excellent inhibitory ability,"CC12CC(NC(=O)N1c1cccc(C(=O)N3CCc4ccccc4C3)c1)c1cc(C(F)(F)F)ccc1O2 (centres unmarked) [Compound 25b, 2-Methyl-3-(3-(1,2,3,4-tetrahydroisoquinoline-2-carbonyl)phenyl)-8-(trifluoromethyl)-5,6-dihydro-2H-2,6-methanobenzo[g][1,3,5]oxadiazocin-4(3H)-one]"

# Same assay, conditions: WST-1 probe; differentiated HL-60, 200 ng/mL PMA; read-out: Inhibitory ability (NOX2)
row,Compound,IC50 [µM]
1,"COc1cc2c(cc1OC)CN(C(=O)c1cccc(N3C(=O)NC4CC3(C)Oc3ccccc34)c1)CC2 (racemic) [Compound 8b, 3-(3-(6,7-Dimethoxy-1,2,3,4-tetrahydroisoquinoline-2-carbonyl)phenyl)-2-methyl-5,6-dihydro-2H-2,6-methanobenzo[g][1,3,5]oxadiazocin-4(3H)-one]",> 10
2,"CC12CC(NC(=O)N1c1cccc(C(=O)NCc3ccc(C(F)(F)F)cc3)c1)c1ccccc1O2 (racemic) [Compound 8c, 3-(2-Methyl-4-oxo-5,6-dihydro-2H-2,6-methanobenzo[g][1,3,5]oxadiazocin-3(4H)-yl)-N-(4-(trifluoromethyl)benzyl)benzamide]",> 10
3,"CC12CC(NC(=O)N1c1cccc(C(=O)NCCc3ccc(C(F)(F)F)cc3)c1)c1ccccc1O2 (racemic) [Compound 8d, 3-(2-Methyl-4-oxo-5,6-dihydro-2H-2,6-methanobenzo[g][1,3,5]oxadiazocin-3(4H)-yl)-N-(4-(trifluoromethyl)phenethyl)benzamide]",1 to 10
4,"CC12CC(NC(=O)N1c1cccc(C(=O)NC3Cc4ccccc4C3)c1)c1ccccc1O2 (racemic) [Compound 8e, N-(2,3-Dihydro-1H-inden-2-yl)-3-(2-methyl-4-oxo-5,6-dihydro-2H-2,6-methanobenzo[g][1,3,5]oxadiazocin-3(4H)-yl)benzamide]",> 10
5,"CC12CC(NC(=O)N1c1cccc(C(=O)NCc3cccnc3)c1)c1ccccc1O2 (racemic) [Compound 8f, 3-(2-Methyl-4-oxo-5,6-dihydro-2H-2,6-methanobenzo[g][1,3,5]oxadiazocin-3(4H)-yl)-N-(pyridin-3-ylmethyl)benzamide]",> 10
6,"CC12CC(NC(=O)N1c1cccc(C(=O)NCc3ccco3)c1)c1ccccc1O2 (racemic) [Compound 8g, N-(Furan-2-ylmethyl)-3-(2-methyl-4-oxo-5,6-dihydro-2H-2,6-methanobenzo[g][1,3,5]oxadiazocin-3(4H)-yl)benzamide]",> 10
7,"CC12CC(NC(=O)N1c1cccc(C(=O)NC3CC3)c1)c1ccccc1O2 (racemic) [Compound 8h, N-Cyclopropyl-3-(2-methyl-4-oxo-5,6-dihydro-2H-2,6-methanobenzo[g][1,3,5]oxadiazocin-3(4H)-yl)benzamide]",> 10
8,"CN(Cc1ccccc1)C(=O)c1cccc(N2C(=O)NC3CC2(C)Oc2ccccc23)c1 (racemic) [Compound 8i, N-Benzyl-N-methyl-3-(2-methyl-4-oxo-5,6-dihydro-2H-2,6-methanobenzo[g][1,3,5]oxadiazocin-3(4H)-yl)benzamide]",> 10
9,"CC12CC(NC(=O)N1c1cccc(C(=O)O)c1)c1ccccc1O2 (centres unmarked) [Compound 7, 3-(2-Methyl-4-oxo-5,6-dihydro-2H-2,6-methanobenzo[g][1,3,5]oxadiazocin-3(4H)-yl)benzoic acid]",> 10
10,"CN1C(=O)N(c2cccc(C(=O)N3CCc4ccccc4C3)c2)C2(C)CC1c1ccccc1O2 (centres unmarked) [Compound 9, 2,5-Dimethyl-3-(3-(1,2,3,4-tetrahydroisoquinoline-2-carbonyl)phenyl)-5,6-dihydro-2H-2,6-methanobenzo[g][1,3,5]oxadiazocin-4(3H)-one]",> 10
11,"C[C@@]12C[C@@H](NC(=O)N1c1cccc(C(=O)N3CCc4ccccc4C3)c1)c1ccccc1O2 [Compound 10a, (2R,6R)-2-Methyl-3-(3-(1,2,3,4-tetrahydroisoquinoline-2-carbonyl)phenyl)-5,6-dihydro-2H-2,6-methanobenzo[g][1,3,5]oxadiazocin-4(3H)-one]",> 10
12,"C[C@@]12C[C@@H](NC(=O)N1c1cccc(C(=O)NCc3ccc(Br)cc3)c1)c1ccccc1O2 [Compound 10b, N-(4-Bromobenzyl)-3-((2R,6R)-2-methyl-4-oxo-5,6-dihydro-2H-2,6-methanobenzo[g][1,3,5]oxadiazocin-3(4H)-yl)benzamide]",> 10
13,"C[C@]12C[C@H](NC(=O)N1c1cccc(C(=O)N3CCc4ccccc4C3)c1)c1ccccc1O2 [Compound 10c, (2S,6S)-2-Methyl-3-(3-(1,2,3,4-tetrahydroisoquinoline-2-carbonyl)phenyl)-5,6-dihydro-2H-2,6-methanobenzo[g][1,3,5]oxadiazocin-4(3H)-one]",1 to 10
14,"C[C@]12C[C@H](NC(=O)N1c1cccc(C(=O)NCc3cc(Br)cc(Br)c3)c1)c1ccccc1O2 [Compound 10d, N-(3,5-Dibromobenzyl)-3-((2S,6S)-2-methyl-4-oxo-5,6-dihydro-2H-2,6-methanobenzo[g][1,3,5]oxadiazocin-3(4H)-yl)benzamide]",> 10
15,"CN1C(=O)N(c2cccc(-c3ccco3)c2)C2(C)CC1c1ccccc1O2 (centres unmarked) [Compound 16, 3-(3-(Furan-2-yl)phenyl)-2,5-dimethyl-5,6-dihydro-2H-2,6-methanobenzo[g][1,3,5]oxadiazocin-4(3H)-one]",> 10
16,"CC12CC(NC(=O)N1c1cccc(CNc3cccc(C(F)(F)F)c3)c1)c1ccccc1O2 (centres unmarked) [Compound 19, 2-methyl-3-(3-(((3-(trifluoromethyl)phenyl)amino)methyl)phenyl)-5,6-dihydro-2H-2,6-methanobenzo[g][1,3,5]oxadiazocin-4(3H)-one]",> 10

# Results, then the compound that gave them:
row,IC50 [µM],Compound
1,> 10,"CC12CC(NC(=O)N1c1cccc(-c3cccc(C#N)c3)c1)c1ccccc1O2 (centres unmarked) [Compound 15a, 3′-(2-Methyl-4-oxo-5,6-dihydro-2H-2,6-methanobenzo[g][1,3,5]oxadiazocin-3(4H)-yl)-[1,1′-biphenyl]-3-carbonitrile]"
2,> 10,"CC12CC(NC(=O)N1c1cccc(-c3ccco3)c1)c1ccccc1O2 (centres unmarked) [Compound 15b, 3-(3-(Furan-2-yl)phenyl)-2-methyl-5,6-dihydro-2H-2,6-methanobenzo[g][1,3,5]oxadiazocin-4(3H)-one]"
3,> 10,"CC12CC(NC(=O)N1c1cccc(C(=O)N3CCc4ccccc4C3)c1)c1cc(Br)ccc1O2 (centres unmarked) [Compound 25a, 8-Bromo-2-methyl-3-(3-(1,2,3,4-tetrahydroisoquinoline-2-carbonyl)phenyl)-5,6-dihydro-2H-2,6-methanobenzo[g][1,3,5]oxadiazocin-4(3H)-one]"
4,> 10,"CC12CC(NC(=O)N1c1cccc(C(=O)N3CCc4ccccc4C3)c1)c1cc(C(F)(F)F)ccc1O2 (centres unmarked) [Compound 25b, 2-Methyl-3-(3-(1,2,3,4-tetrahydroisoquinoline-2-carbonyl)phenyl)-8-(trifluoromethyl)-5,6-dihydro-2H-2,6-methanobenzo[g][1,3,5]oxadiazocin-4(3H)-one]"
5,1 to 10,"CC12CC(NC(=O)N1c1cccc(C(=O)N3CCc4ccccc4C3)c1)c1cc(Cl)ccc1O2 (centres unmarked) [Compound 25c, 8-Chloro-2-methyl-3-(3-(1,2,3,4-tetrahydroisoquinoline-2-carbonyl)phenyl)-5,6-dihydro-2H-2,6-methanobenzo[g][1,3,5]oxadiazocin-4(3H)-one]"
6,1 to 10,"CC12CC(NC(=O)N1c1cccc(C(=O)N3CCc4ccccc4C3)c1)c1cc(F)ccc1O2 (centres unmarked) [Compound 25d, 8-Fluoro-2-methyl-3-(3-(1,2,3,4-tetrahydroisoquinoline-2-carbonyl)phenyl)-5,6-dihydro-2H-2,6-methanobenzo[g][1,3,5]oxadiazocin-4(3H)-one]"
